The values that follow come from ChEMBL document CHEMBL1151734, “Cytochrome P450 2C9 type II binding studies on quinoline-4-carboxamide analogues” (J Med Chem, 2008).

pKd, pKi: −log10 of the molar value.

T1 sequence (P11712 whole entry): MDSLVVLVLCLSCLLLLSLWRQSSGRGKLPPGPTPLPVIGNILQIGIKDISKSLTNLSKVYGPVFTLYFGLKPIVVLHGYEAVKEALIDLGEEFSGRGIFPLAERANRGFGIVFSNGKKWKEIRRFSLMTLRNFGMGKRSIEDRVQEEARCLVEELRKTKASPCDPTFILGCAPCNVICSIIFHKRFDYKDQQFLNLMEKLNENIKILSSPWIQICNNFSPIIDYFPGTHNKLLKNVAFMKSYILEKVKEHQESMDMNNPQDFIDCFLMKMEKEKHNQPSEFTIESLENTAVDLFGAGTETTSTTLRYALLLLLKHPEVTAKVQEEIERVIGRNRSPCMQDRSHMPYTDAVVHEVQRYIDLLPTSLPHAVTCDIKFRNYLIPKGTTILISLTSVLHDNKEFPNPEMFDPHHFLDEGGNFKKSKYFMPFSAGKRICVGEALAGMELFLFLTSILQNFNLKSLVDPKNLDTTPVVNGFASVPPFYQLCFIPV

One test has as its target T1, Cytochrome P450 2C9 (Homo sapiens, UniProt P11712). The test is described as follows: Inhibition of reconstituted CYP2C9. The test is classed as ADME.
As for `O=C(c1cc(-c2ccccn2)nc2ccccc12)N1CCC(N2CCCC2)CC1`, the pKi (commonly −log10 of the Ki, conventionally taken in molar units) was 4.12. With `Cc1cc(C)c2nc(-c3ccccn3)cc(C(=O)Nc3ccc4ccccc4c3)c2c1`, the pKi is under 4.69. The same measure, in the same setting: in the case of `O=C(Nc1ccccc1)c1cc(-c2cccnc2)nc2ccccc12` it was 5.39; in that of `O=C(c1cc(-c2cccnc2)nc2ccccc12)N1CCC(N2CCCC2)CC1`, 4.62. On the same count and under the same terms, in the case of `O=C(NCc1cccc2ccccc12)c1cc(-c2ccncc2)nc2ccccc12` it was 6.90. As to `O=C(Nc1ccc2ccccc2c1)c1cc(-c2ccncc2)nc2ccc(Cl)cc12`, the pKi was 7.92. `O=C(Nc1ccc2ccccc2c1)c1cc(-c2ccncc2)nc2ccc(Br)cc12` showed a pKi of 8.05. The same measure, in the same setting: in the case of `O=C(Nc1ccccc1)c1cc(-c2ccncc2)nc2ccccc12` it was 7.00; in that of `O=C(Nc1cccc2ccccc12)c1cc(-c2ccccn2)nc2ccccc12`, 5.88. The same measure, in the same setting: in the case of `O=C(c1cc(-c2ccccn2)nc2ccccc12)N1CCCCC1` it was 4.63; in that of `O=C(Nc1ccc2ccccc2c1)c1cc(-c2ccccn2)nc2ccccc12`, 4.97; in that of `Cc1cc(C)c2nc(-c3cccnc3)cc(C(=O)Nc3ccc4ccccc4c3)c2c1`, 5.07. On to `O=C(Nc1ccc2ccccc2c1)c1cc(-c2cccnc2)nc2ccccc12`, for which the negative logarithm of the Ki (pKi) is 5.94.

As to `O=C(Nc1cccc2ccccc12)c1cc(-c2cccnc2)nc2ccccc12`, the pKi is 5.90. Consider `O=C(c1cc(-c2ccncc2)nc2ccccc12)N1CCCCC1`, for which the pKi is 5.00. The compound `O=C(Nc1ccc2ccccc2c1)c1cc(-c2cccnc2)nc2ccc(Cl)cc12` had a pKi of 5.72.

As to `O=C(c1cc(-c2cccnc2)nc2ccccc12)N1CCCCC1`, the pKi is 5.01.

For the compound `Cc1cc(C)c2nc(-c3ccncc3)cc(C(=O)Nc3ccc4ccccc4c3)c2c1`, the negative logarithm of the Ki (pKi) was 7.96. Same read-out and setting: in the case of `O=C(NCc1cccc2ccccc12)c1cc(-c2ccccn2)nc2ccccc12` it was under 4.36; in that of `O=C(Nc1ccc2ccccc2c1)c1cc(-c2cccnc2)nc2ccc(Br)cc12`, under 4.42. On the same count and under the same terms, in the case of `O=C(c1cc(-c2ccncc2)nc2ccccc12)N1CCC(N2CCCC2)CC1` it was 5.44. The compound `O=C(Nc1ccc2ccccc2c1)c1cc(-c2ccncc2)nc2ccccc12` had a pKi of 7.48.

Compound `O=C(NCc1cccc2ccccc12)c1cc(-c2cccnc2)nc2ccccc12` gave a pKi of 6.82. Same read-out and setting: in the case of `O=C(Nc1ccccc1)c1cc(-c2ccccn2)nc2ccccc12` it was 5.46.

A further test addresses T1, Cytochrome P450 2C9. The test is described as follows: Binding affinity to CYP2C9 assessed as spectral dissociation constant.
Take `O=C(NCc1cccc2ccccc12)c1cc(-c2ccncc2)nc2ccccc12`: the negative logarithm of the Kd (pKd) – broadly, the negative decadic logarithm of the Kd, by convention in mol/L – was 5.89.

For the compound `O=C(Nc1ccccc1)c1cc(-c2ccncc2)nc2ccccc12`, the pKd was 6.49.

Another test has as its target T1, Cytochrome P450 2C9. The test is described as follows: Inhibition of purified CYP2C9.
On to `O=C(NCc1cccc2ccccc12)c1cc(-c2ccncc2)nc2ccccc12`, for which the pKi was 6.95.
